Columns and labels:
[1] = test system: patients with Cocaine Use Disorder (CUD); assay: Phase 2 trial: quantitative urine measurement of benzoylecgonine (BE); type: in vivo, human; settings: 98-day administration, P=0.025
Method: (§1) This study was conducted in patients with CUD and consisted of about a 21-day screening period followed by a 7-day baseline period, a 98-day outpatient treatment period, and an end of study visit evaluation about 14 days after the last study drug administration ([…]. A). Study treatment was taken twice daily (separated by about 12-hour intervals) with food. For patients in the mavoglurant arm [mavoglurant (free form) provided as modified release formulation (e.g. in WO2014/199316)], an uptitration regimen was performed for 14 days (50 mg b.i.d. from Days 1 to 7 and 100 mg b.i.d from Days 8 to 14) and was followed by 200 mg b.i.d for 84 days.
The primary endpoint was the proportion of cocaine use days during the treatment period, assessed by timeline followback [TLFB] cocaine self-report report. The secondary endpoints included a weekly urine analysis for a log-transformed quantitative measure of cocaine metabolite benzoylecgonine (BE), safety assessments (clinical parameters, suicidal ideation, adverse events [AE] and serious adverse events [SAE] at every visit), and pre- and post-dose levels of mavoglurant in the plasma. […]
Two urine samples per week provided a log-transformed quantitative measure of BE (cocaine's metabolite). […]

[2] = Phase 2 trial: safety and adverse events; type: in vivo, human
Method: as §1
Data for vital signs, electrocardiogram (ECG) and clinical laboratory evaluations were summarized by treatment and visit/time. Mavoglurant plasma concentrations were recorded at pre-dose and 2 hour (±1 hour) sampling window after the morning dose and summary statistics for concentrations were provided for plasma.
Data for vital signs (BP, pulse rate, body temperature), ECGs, and clinical laboratory evaluations were listed by treatment, subject, visit/time; abnormalities were flagged (if ranges were available).
The number and percentage of subjects with AEs are tabulated by body system and PT with a breakdown by treatment. A subject with multiple AEs within body system was only counted once towards the total of this body system and treatment.
Patient Reported Outcome included: • 1. The TLFB cocaine: is a cocaine assessment method that obtains estimates of daily cocaine intake and has been evaluated with clinical and nonclinical populations. Using a calendar, people provide retrospective estimates of their daily cocaine use over a specified time period that can vary up to 12 months from the interview date. Several memory aids can be used to enhance recall (e.g., calendar; key dates serve as anchors for reporting cocaine use). […] The method is recommended for use when relatively precise estimates of cocaine use are necessary, especially when a complete use pre-posttreatment). Clinically, the TLFB can be used to provide feedback about one's cocaine consumption in an effort to increase a client's motivation to change. • 2. The TLFB alcohol: is a drinking assessment method that obtains estimates of daily drinking and has been evaluated with clinical and nonclinical populations. Using a calendar, people provide retrospective estimates of their daily drinking over a specified time period that can vary up to 12 months from the interview date. Several memory aids can be used to enhance recall (e.g., calendar; key dates serve as anchors for reporting drinking; standard drink conversion). […] The method is recommended for use when relatively precise estimates of drinking are necessary, especially when a complete picture of drinking days (i.e., high- and low-risk days) is needed (evaluating drinking pre/post-treatment). Clinically, the TLFB can be used to provide feedback about one's drinking in an effort to increase a client's motivation to change. Overall, the Alcohol TLFB method provides a relatively accurate portrayal of drinking, and has both clinical and research utility. • 3. The BDI-II: is instrument endorsed by the National Institute for Health and Clinical Excellence for use in primary care in measuring baseline depression severity and responsiveness to treatment. • 4. The STAI: is an assessment tool for measuring the presence and severity of current symptoms of anxiety and a generalized propensity to be anxious. There are 2 subscales within this measure. First, the State Anxiety Scale (S-Anxiety) evaluates the current state of anxiety, asking how respondents feel “right now,” using items that measure subjective feelings of apprehension, tension, nervousness, worry, and activation/arousal of the autonomic nervous system. […]

SMILES: COC(=O)N1CC[C@@H]2[C@H]1CCC[C@@]2(O)C#Cc1cccc(C)c1 [mavoglurant, (-)-(3aR,4S,7aR)-4-Hydroxy-4-m-tolylethynyl-octahydro-indole-1-carboxylic acid methyl ester]
- cocaine consumption as assessed by urine benzoylecgonine (BE) vs placebo [1]: significantly lower levels of BE in urine
- cocaine consumption as assessed by urine benzoylecgonine (BE) vs placebo ([1]; listed as Mavoglurant): significantly reduced cocaine consumption
- overall AE rate vs placebo group ([2]; CUD patients, 98-day treatment): comparable
- overall safety and tolerability ([2]; CUD patients, 98-day treatment): safe and well tolerated
- rate of psychiatric symptoms vs placebo group ([2]; CUD patients, 98-day treatment): higher rate of psychiatric symptoms
- vital signs, ECGs, clinical safety laboratory parameters ([2]; CUD patients, 98-day treatment): no significant findings
- overall safety and tolerability ([2]; CUD patients, 98-day treatment, listed as Mavoglurant): safe and well-tolerated
- deaths or SAEs ([2]; mavoglurant group): no deaths or SAEs
